Patent US9526729B2, “Medicament for treating peripheral neuropathies” (priority 2013, dated 2016)

Columns and labels:
[1] = tested on: Herpes simplex virus (HSV); test: Clinical cases of pyoderma gangrenosum induced by HSV infection; type: in vivo, human
[2] = tested on: Herpes simplex virus (HSV); test: Clinical cases of QTT-positive HSV-associated dermatitis treated with antiviral agent; type: in vivo, human
Source text: Step 100: Checking a potential disease (D) relates to a dermatosis or a non-skin disease. For example, some questions are given for the patient and the skin of the patient is checked by an experienced inspector or a medical staff to determine if a potential disease (D) had by the patent relates to a dermatosis or a non-skin disease. If the potential disease (D) relates to a dermatosis, the inspector or the medical staff will take some tissue samples from an affected part of a patient's skin, as illustrated in step 101, and the test in step 102 for testing the tissue samples from the patient's skin will continue. If the disease (D) relates to a non-skin disease, the inspector or the medical staff takes a tissue sample from a specific part, such as peripheral blood, skin, bone marrow, mucosa, saliva, cerebrospinal fluid, amniotic fluid, brain tissue, tears or skin secretions, of the patient, as illustrated in step 103, based on the method for testing the tissue sample in step 104, and then the test in step 104 for testing the tissue samples from the specific part of the patient will continue.
(§1) Step 102: Performing a Quick Tzanck Test (QTT) process. The QTT process can be applied to the tissue samples from the patient's skin so as to reveal some histopathological changes from the QTT sample, i.e. the tissue samples from the patient's skin, by using a microscope. The inspector or the medical staff can observe the histopathological changes to diagnose HSV infection.
Step 106: Treating an anti-HSV treatment of, for example, prescribing an anti-HSV medicine or an anti-HSV cream for the patient. The patient may take the anti-HSV medicine to cure the HSV infection. Alternatively, the patient may apply the anti-HSV cream onto the affected part of the patient's skin.
(§2) 1. Adult: Valacyclovir (500 mg) • a. 2 tablets daily (i.e. 1 tablet after breakfast and dinner) for 5-7 days. • b. 3 tablets daily (i.e. every 8 hours) for severe cases in the beginning only.

[3] = tested on: Herpes simplex virus (HSV); test: Clinical cases of impetigo induced by HSV infection; type: in vivo, human; details: for clinical outcome, skin lesions: Acyclovir G. 10 mg/kg 4 times a day for 7 days + anti-allergic agents
Protocol: as §1, with “The” for “Step 102: Performing a Quick Tzanck Test (QTT) process. The”
as §2

[4] = tested on: Herpes simplex virus (HSV); test: Clinical cases of alopecia due to HSV infection; type: in vivo, human
viral thymidine kinase = viral thymidine kinase (Human herpesvirus 1, UniProt P0DTH5); details: conversion into acyclo-guanosine monophosphate; cited from earlier work
[5] = tested on: Herpes simplex virus (HSV); test: Clinical cases of diabetic skin complications (psoriasiform plaques induced by HSV infection); type: in vivo, human; details: Acyclovir (400 mg) 3 tablets daily for 10 days then 2 tablets daily for 10 days + NBUVB + Gr. I and III topical CS; 7 days afterwards
Source text: (§3) Step 104: Performing an antibody testing or a PCR techniques on the tissue sample from the specific part of the patient. The antibody testing, such as the HSV IgG testing, the cytomegalovirus immunoglobulin G (CMV IgG) testing or the non-specific immunoglobulin E (IgE) testing is adapted to be performed on a peripheral blood, acting as the tissue sample, of the patient. The PCR testing is adapted to be performed on peripheral blood, skin, bone marrow, mucosa, saliva, cerebrospinal fluid, amniotic fluid, brain tissue, tears or skin secretions, acting as the tissue sample, of the patient. The antibody testing or PCR techniques may be referred to the description in the section of “Diagnosis of HSV Infection”. The normal titer for CMV IgG/HSV IgG is less than 2 and the normal titer for non-specific IgE is less than 170 IU/ml. When the tissue sample from peripheral blood of the patient has a titer for CMV IgG/HSV IgG greater than 2, the process of “anti-HSV treatments” in step 106 is then carried out. Otherwise, the step 108 of “other treatments” is carried out. Alternatively, when the result of detecting the tissue sample via the PCR techniques is positive, the process of “anti-HSV treatments” in step 106 is then carried out; when the result of detecting the tissue sample via the PCR techniques is negative, the step 108 of “other treatments” is carried out.
1. […]

[6] = tested on: Herpes simplex virus (HSV); test: Clinical cases of chilblain induced by HSV infection; type: in vivo, human; details: for clinical outcome, red swollen fingers with pain: 2nd case of chilblain
Source text: as §1, §3, §2

[7] = tested on: recurrent erythema multiforme; details: continuous acyclovir therapy; double-blind trial in 1995 (Tatnall); cited from earlier work
[8] = tested on: Herpes simplex virus (HSV); test: Clinical cases of acne induced by HSV infection; type: in vivo, human; details: for clinical outcome, symptoms: 7 days later
Protocol: as §1, §2
Consequently, the treatment in the present invention of acne may comprise a cream or an ointment mixed by an Anti-HSV agent to put on the affected part of the patient, wherein the Anti-HSV agent comprises Valacyclovir or Acyclovir. For example, the ADO ointment used in this invention contains acyclovir, lidocaine and diclofenac.

viral polymerase = viral polymerase (Human herpesvirus 1, UniProt P04293); details: cited from earlier work
[9] = CASE 7, with anti-allergic agent and antibiotic ointment, 9 days later

Sequence of viral thymidine kinase (P0DTH5 whole entry): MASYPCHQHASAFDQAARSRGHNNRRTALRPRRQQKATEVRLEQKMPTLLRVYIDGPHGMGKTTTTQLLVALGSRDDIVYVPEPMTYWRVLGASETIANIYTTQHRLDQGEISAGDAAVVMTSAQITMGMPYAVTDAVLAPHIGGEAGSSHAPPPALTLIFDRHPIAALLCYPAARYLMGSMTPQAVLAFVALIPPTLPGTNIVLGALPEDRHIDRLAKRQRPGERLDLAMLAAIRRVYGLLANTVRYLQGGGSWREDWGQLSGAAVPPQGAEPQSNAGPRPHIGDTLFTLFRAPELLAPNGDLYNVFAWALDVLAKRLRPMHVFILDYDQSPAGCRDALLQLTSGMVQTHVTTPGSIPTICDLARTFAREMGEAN
Sequence of viral polymerase (P04293 whole entry): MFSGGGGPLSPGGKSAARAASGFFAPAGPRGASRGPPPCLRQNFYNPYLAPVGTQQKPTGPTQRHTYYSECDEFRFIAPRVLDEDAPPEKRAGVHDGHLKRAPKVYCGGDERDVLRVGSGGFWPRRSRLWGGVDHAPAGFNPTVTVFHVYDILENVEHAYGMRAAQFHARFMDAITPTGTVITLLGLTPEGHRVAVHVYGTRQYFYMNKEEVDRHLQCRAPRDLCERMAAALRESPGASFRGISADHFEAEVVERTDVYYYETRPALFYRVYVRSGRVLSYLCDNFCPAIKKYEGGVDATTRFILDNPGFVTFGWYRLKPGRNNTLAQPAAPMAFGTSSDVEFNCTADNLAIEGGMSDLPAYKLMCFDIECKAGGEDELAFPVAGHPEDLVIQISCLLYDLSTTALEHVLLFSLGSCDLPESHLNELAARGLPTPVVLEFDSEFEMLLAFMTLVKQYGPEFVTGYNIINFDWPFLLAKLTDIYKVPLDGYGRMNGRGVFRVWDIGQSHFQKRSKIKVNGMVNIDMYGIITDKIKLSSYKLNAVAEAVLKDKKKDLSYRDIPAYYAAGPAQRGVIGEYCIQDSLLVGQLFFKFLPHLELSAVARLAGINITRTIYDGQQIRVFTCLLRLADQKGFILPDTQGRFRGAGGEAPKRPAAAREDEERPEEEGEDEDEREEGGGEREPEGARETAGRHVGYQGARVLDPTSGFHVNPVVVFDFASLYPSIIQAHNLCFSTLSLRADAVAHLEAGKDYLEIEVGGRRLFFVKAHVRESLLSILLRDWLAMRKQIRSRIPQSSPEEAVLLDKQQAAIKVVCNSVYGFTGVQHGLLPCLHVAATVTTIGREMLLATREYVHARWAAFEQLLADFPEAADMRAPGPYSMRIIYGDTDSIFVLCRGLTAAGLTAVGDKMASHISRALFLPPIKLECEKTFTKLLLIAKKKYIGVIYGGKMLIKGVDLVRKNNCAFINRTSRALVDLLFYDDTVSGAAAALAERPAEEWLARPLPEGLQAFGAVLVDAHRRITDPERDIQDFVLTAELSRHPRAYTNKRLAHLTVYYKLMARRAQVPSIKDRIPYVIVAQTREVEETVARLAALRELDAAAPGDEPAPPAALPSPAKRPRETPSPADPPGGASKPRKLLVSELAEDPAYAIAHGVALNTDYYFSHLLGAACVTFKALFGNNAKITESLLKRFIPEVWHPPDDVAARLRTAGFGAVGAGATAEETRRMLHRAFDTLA

For `C[C@]12C=CC(=O)C=C1CC[C@@H]1[C@@H]2[C@@H](O)C[C@@]2(C)[C@H]1CC[C@]2(O)C(=O)CO` [prednisolone], the “clinical outcome, symptoms” value ([1]; 2nd case of pyoderma gangrenosum with ulcerative colitis, oral prednisolone 40 mg tapered + gentamycin ointment + mesalazine, no antiviral, 13 days later) was “Symptoms have significantly improved”.
For `Nc1nc(O)c2ncn(COCCO)c2n1` [Acyclovir, 2-Amino-1,9-dihydro-9-((2-hydroxyethoxy)methyl)-6H-purin-6-one], the “clinical outcome, vesiculopapules and plaques” value ([2]; CASE 6, QTT positive, 2 days later) was “nearly no vesiculopapules and plaques over their trunk and upper extremity”, the “clinical outcome, earlier similar eruptions” value ([2]; Case 8, 5-7 days of acyclovir granules, 7 and 9 months ago) was “Completely disappearance of similar eruptions” and the “clinical outcome, skin lesions” value ([3]; 1st case of impetigo, antibiotics, 9 days later) was “only some erythema on their mandible and some small red erosions over right cheek”. The “clinical outcome, lesion” value ([3]; 2nd case of impetigo, Acyclovir G. 10 mg/kg 4 times a day for 7 days + antibiotics ointment, 3 days later) was “The lesion dried, desquamated and became flat”, the recurrence ([3]; 4th case of impetigo, about one year) was “no recurrence till now” and the “clinical outcome, skin lesions” value ([3]; 5th case of impetigo, Gr. IV topical corticosteroids, antibiotic ointment, 5 days later) was “some small erosions around their month and some vesiculopapules over the erythematosus eyelids”. For the same molecule, the recurrence ([3]; 5th case of impetigo, about 14 months) was “no recurrence till now”, the “clinical outcome, vesicopapules and pustules on back” value ([4]; 1st case of alopecia and acne-like eruption, after the treatment) was “only a few vesicopapules and pustules on their back” and the hair regrowth ([4]; 1st case of alopecia, Acyclovir (400 mg) 3 tablets daily for 10 days and 2 tablets daily for 14 days + anti-allergic agent + Gr. III topical CS, 23 days later) was “Small white hairs appeared especially over central portion”. The “effectiveness of viral thymidine kinase in phosphorylation versus cellular thymidine kinase” value (viral thymidine kinase) was 3000 times, the “clinical outcome, psoriasiform plaques” value [5] was “Some lesions disappeared and the scaling of the psoriasiform plaques decreased a lot” and the “clinical outcome, swelling, pain, erosion” value ([6]; 1st case of chilblain, Acyclovir 200 mg 3 tablets daily for 7 days, 7 days later) was “The swelling and pain decreased a lot. The erosion improved”. The “suppression of recurrent erythema multiforme” value [7] was “completely suppressed”.
With `CC(C)C(N)C(=O)OCCOCn1cnc2c(=O)nc(N)[nH]c21` (centres unmarked) [Valacyclovir, 2-[(2-amino-6-oxo-6,9-dihydro-3H-purin-9-yl)methoxy]ethyl-2-amino-3-methylbutanoate] the “clinical outcome, erosions and oozing” value ([1]; 1st case of pyoderma gangrenosum, Valacyclovir 3 tablets daily for 10 days + anti-allergic agent, antibiotics ointment, Gr. III topical CS, 10 days later) was “no more erosions and oozing”, the “clinical outcome, vesicles and swelling of forearm” value ([2]; CASE 5, 2 days after Valacyclovir granule) was “Most of the vesicles became crusts and the swelling of their forearm improved a lot” and the “clinical outcome, anterior chest” value [2, 9] was “only few vesiculopapules over their anterior chest”. The “clinical outcome, lower abdomen” value [2, 9] was “nearly no punched out erosions over their lower abdomen”, the recurrence ([2]; Case 9, follow-up after treatment) was “no recurrence for 2 years” and the “clinical outcome, vesicles” value ([2]; Case 9, with anti-allergic agent, 3 days after treatment) was “the roofs of the vesicles detached and became crusted erosions”. For the same molecule, the “clinical outcome, skin lesion” value ([2]; Case 9, with anti-allergic agent, 7 days later) was “healed completely”, the “clinical outcome, vesicles” value ([3]; 3rd case of impetigo, Valacyclovir 2 tablets daily + anti-allergic agent, 3 days after the treatment) was “the vesicles found over their left neck 6 days ago collapsed” and the “clinical outcome, symptoms” value ([3]; 3rd case of impetigo, Valacyclovir 2 tablets daily for 7 days + anti-allergic agent + antibiotics 2 days, 7 days later) was “Symptoms have significantly improved”. For the same molecule, the hair regrowth ([4]; 1st case of alopecia, about 7 weeks after they finished Valacyclovir 2 tablets daily for 5 days) was “New hairs including black hairs increased a lot”, the “clinical outcome, pustule” value ([4]; 2nd case of alopecia, Valacyclovir 1 tablets daily for 95 days + anti-allergic agent + Acyclovir ointment for 6 weeks, a week later) was “The pustule disappeared” and the “clinical outcome, atrophic plague” value ([4]; 2nd case of alopecia, same regimen, 2 weeks later) was “nearly no change on the atrophic plague”. For the same molecule, the hair regrowth ([4]; 2nd case of alopecia, same regimen, 4 weeks later) was “hair increased obviously on the right side and posterior aspect”, the hair regrowth ([4]; 2nd case of alopecia, same regimen, 16 weeks later) was “New black hairs (circle) were observed and no more alopecia on the right side” and the “clinical outcome, pustules and inflammation” value ([8]; 1st case of acne, Valacyclovir 2 tablets daily for 5 days + Nadifloxacin cream, 5 days later) was “The number of the pustules and the extent of inflammation decreased”. For the same molecule, the “clinical outcome, pustules” value ([8]; 2nd case of acne, Valacyclovir 2 tablets daily for 5 days + ADO ointment, 8 days later) was “Nearly no pustules were seen”, the “clinical outcome, inflammation and comedoes” value ([8]; 3rd case of acne, Valacyclovir 2 tablets daily for 5 days per month + ADO ointment, 23 days later) was “The severe inflammation on the nose and over the left cheek decreased a lot” and the “clinical outcome, pustules” value ([8]; 4th case of acne, Valacyclovir 2 tablets daily for 5 days + anti-allergic agent + Gr. IV topical CS, 2 days later) was “Not only the number but also the size of the pustules decreased a lot”. For the same molecule, the recurrence ([8]; 4th case of acne, after completed medication, about one year) was “no recurrence till now”, the “clinical outcome, symptoms” value ([8]; 5th case of acne, Valacyclovir 2 tablets daily for 5 days + antibiotics 2 days + Nadifloxacin cream) was “Symptoms have significantly improved” and the “clinical outcome, symptoms” value ([8]; 6th case of acne, Valacyclovir 2 tablets daily for 5 days + Nadifloxacin cream + Gr. IV topical CS) was “Symptoms have significantly improved”. The “clinical outcome, red swollen fingers with pain” value ([6]; after 2nd prescriptions: Valacyclovir 1 tablets daily for 14 days + anti-allergic agent + ADO ointment 2 time daily) was “improved” and the “clinical outcome, red swollen fingers with pain” value ([6]; after 3rd prescriptions: Valacyclovir 1 tablets daily for 14 days + anti-allergic agent + ADO ointment 2 time daily) was “nearly cured”.
For `Nc1nc2c(ncn2COCCOP(=O)(O)OP(=O)(O)OP(=O)(O)O)c(=O)[nH]1` [Acyclo-GTP, acyclo-guanosine triphosphate], the “greater affinity for viral than cellular polymerase” value (viral polymerase) is given as “approximately 100 times”.
